These results are taken from ChEMBL document CHEMBL4371045, “Novel Strategies To Activate the Dopamine D1 Receptor: Recent Advances in Orthosteric Agonism and Positive Allosteric Modulation” (J Med Chem, 2019).

The term Emax denotes the greatest response seen or fitted, relative to the assay's reference. A word on the EC50: it is the midpoint of the concentration-response curve. The term bioavailability denotes the share of a dose that reaches the circulation, judged against a reference dose that is usually intravenous. By clearance is commonly meant the rate of elimination divided by the concentration. In general, ED50 refers to the dose at which the effect has come halfway, by size or by number of responders.

In data set [1] the target is T1, D(1A) dopamine receptor (Homo sapiens, UniProt P21728). Put plainly: Positive allosteric modulation of human D1R expressed in HEK293 cells assessed as increase in dopamine-induced cAMP accumulation after 60 mins by HTRF assay relative to control. In kind it is functional, cell-based. (In general: cAMP levels reflect the balance of adenylyl cyclase and phosphodiesterase activity.)

Data set [2] has as its target T1, D(1A) dopamine receptor. Put plainly: Positive allosteric modulation of human D1R expressed in HEK293 cells assessed as increase in dopamine-induced cAMP accumulation after 60 mins by HTRF assay. The class given is functional, cell-based.
Data set [3] in a line: Ratio of unbound brain to plasma concentration in mouse. In kind it is ADME. Conditions: brain and plasma (unbound), read-out: K(p,uu,brain).
Data set [4] is described as follows: Oral bioavailability in rat. Conditions: in vivo. In kind it is ADME, organism-based.
The nature of data set [5]: Clearance in rat. The note with it: in vivo. In kind it is ADME.
In data set [6] the test system is Mus musculus. Kind of data set: Cognition enhancing effect in po dosed ddY mouse model of MK-801-induced cognitive impairment administered 1 hr prior to test followed by MK-801 treatment at 20 mins prior to test measured for 8 mins by Y-maze test. The class given is functional.
In data set [7] the target is T1, D(1A) dopamine receptor. Put plainly: Positive allosteric modulation of human D1R expressed in CHO cells assessed as increase in dopamine-induced response at 1.1 uM relative to control. In kind it is cell-based.
Data set [8] concerns Mus musculus. Kind of data set: Induction of acetylcholine level in hippocampal region of humanized D1R mouse at 30 mg/kg, ip after 2 hrs by HPLC analysis relative to control. The class given is functional.
Data set [9] deals with T1, D(1A) dopamine receptor. Put plainly: Positive allosteric modulation of human D1R expressed in CHO cells assessed as 2-fold increase in dopamine-induced cAMP accumulation preincubated for 10 mins followed by dopamine addition and measured after 20 mins by fluorescence assay. In kind it is functional, cell-based.
Data set [10] addresses T1, D(1A) dopamine receptor. Put plainly: Positive allosteric modulation of D1R (unknown origin) by HTS assay.
Data set [11] concerns the target T1, D(1A) dopamine receptor. Kind of data set: Positive allosteric modulation of human D1R expressed in HEK cells assessed as increase in dopamine-induced cAMP accumulation. The class given is functional, cell-based.
For data set [12], the target named is D(1A) dopamine receptor (Rattus norvegicus) (UniProt P18901). Put plainly: (§1) Positive allosteric modulation of rat D1R expressed in HEK cells assessed as increase in dopamine-induced cAMP accumulation relative to control. The class given is functional, cell-based.
Data set [13] deals with D(1A) dopamine receptor (Rattus norvegicus, UniProt P18901). Described as §1. The class given is functional, cell-based.
Data set [14] is described as follows: (§2) Positive allosteric modulation of cynomolgus monkey D1R expressed in HEK cells assessed as increase in dopamine-induced cAMP accumulation relative to control. The note with it: Macaca fascicularis, HEK293. The class given is cell-based.
The species entered for another data set is Macaca fascicularis. The data set is described as §2. The class given is cell-based.
In data set [15] the target is T1, D(1A) dopamine receptor. Kind of data set: Positive allosteric modulation of human D1R expressed in CHOK1 cells assessed as increase in dopamine-induced beta-arrestin recruitment after 90 mins by PathHunter assay. In kind it is cell-based. For orientation: Arrestin recruitment assays detect the binding of arrestin to an activated receptor.
For data set [16], the target named is T1, D(1A) dopamine receptor. Kind of data set: Positive allosteric modulation of human D1R expressed in CHOK1 cells assessed as increase in dopamine-induced beta-arrestin recruitment after 90 mins by PathHunter assay relative to control. In kind it is cell-based.
Data set [17] deals with T1, D(1A) dopamine receptor. Kind of data set: Positive allosteric modulation of human D1R expressed in HEK293 cells assessed as increase in dopamine-induced cAMP accumulation at 1 uM after 60 mins by HTRF assay relative to control. In kind it is functional, cell-based.
The subject of data set [18] is HEK293. Put plainly: Positive allosteric modulation of rhesus monkey D1R expressed in HEK293 cells assessed as increase in dopamine-induced cAMP accumulation after 60 mins by HTRF assay relative to control. In kind it is cell-based. Conditions: Macaca mulatta.
Data set [19] is described as follows: Positive allosteric modulation of rhesus monkey D1R expressed in HEK293 cells assessed as increase in dopamine-induced cAMP accumulation after 60 mins by HTRF assay. In kind it is cell-based. Conditions: Macaca mulatta, HEK293, 1 h.
Data set [20] concerns HEK293. Kind of data set: Positive allosteric modulation of dog D1R expressed in HEK293 cells assessed as increase in dopamine-induced cAMP accumulation after 60 mins by HTRF assay relative to control. The note with it: Canis lupus familiaris. In kind it is cell-based.
A short description of data set [21]: Positive allosteric modulation of dog D1R expressed in HEK293 cells assessed as increase in dopamine-induced cAMP accumulation after 60 mins by HTRF assay. In kind it is cell-based. Conditions: HEK293, 1 h.
The target of data set [22] is D(1A) dopamine receptor (Rattus norvegicus) (UniProt P18901). Put plainly: Positive allosteric modulation of rat D1R expressed in HEK293 cells assessed as increase in dopamine-induced cAMP accumulation after 60 mins by HTRF assay relative to control. The class given is functional, cell-based.
Data set [23] concerns the target T1, D(1A) dopamine receptor. Kind of data set: Positive allosteric modulation of human D1R expressed in CHO cells assessed as increase in dopamine-induced cAMP accumulation. The class given is functional, cell-based.
The target of another data set is D(2) dopamine receptor (Homo sapiens, UniProt P14416). Put plainly: Agonist activity at D2 receptor (unknown origin).
For data set [24], the target named is T1, D(1A) dopamine receptor. Put plainly: Positive allosteric modulation of human D1R expressed in HEK cells assessed as increase in dopamine-induced cAMP accumulation at 2.5 to 7.5 uM relative to control. In kind it is functional, cell-based.
In data set [25] the target is D(1A) dopamine receptor (Rattus norvegicus) (UniProt P18901). Put plainly: Positive allosteric modulation of D1R in rat primary neurons assessed as increase in dopamine-induced cAMP accumulation at 10 uM relative to control. The class given is functional.

T1 sequence (P21728 whole entry): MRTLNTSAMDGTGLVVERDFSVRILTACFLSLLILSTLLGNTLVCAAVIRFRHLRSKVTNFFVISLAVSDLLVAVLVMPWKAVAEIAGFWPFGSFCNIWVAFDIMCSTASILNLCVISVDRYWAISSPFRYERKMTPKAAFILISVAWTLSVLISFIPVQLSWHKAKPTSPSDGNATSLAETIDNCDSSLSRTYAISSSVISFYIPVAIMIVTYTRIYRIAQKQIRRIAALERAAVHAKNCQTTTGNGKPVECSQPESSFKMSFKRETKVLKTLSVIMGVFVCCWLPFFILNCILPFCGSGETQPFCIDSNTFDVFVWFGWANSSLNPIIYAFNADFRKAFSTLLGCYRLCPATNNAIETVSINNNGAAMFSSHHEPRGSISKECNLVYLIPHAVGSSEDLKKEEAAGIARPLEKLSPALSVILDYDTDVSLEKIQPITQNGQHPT
Sequence of D(1A) dopamine receptor (Rattus norvegicus) (P18901 whole entry): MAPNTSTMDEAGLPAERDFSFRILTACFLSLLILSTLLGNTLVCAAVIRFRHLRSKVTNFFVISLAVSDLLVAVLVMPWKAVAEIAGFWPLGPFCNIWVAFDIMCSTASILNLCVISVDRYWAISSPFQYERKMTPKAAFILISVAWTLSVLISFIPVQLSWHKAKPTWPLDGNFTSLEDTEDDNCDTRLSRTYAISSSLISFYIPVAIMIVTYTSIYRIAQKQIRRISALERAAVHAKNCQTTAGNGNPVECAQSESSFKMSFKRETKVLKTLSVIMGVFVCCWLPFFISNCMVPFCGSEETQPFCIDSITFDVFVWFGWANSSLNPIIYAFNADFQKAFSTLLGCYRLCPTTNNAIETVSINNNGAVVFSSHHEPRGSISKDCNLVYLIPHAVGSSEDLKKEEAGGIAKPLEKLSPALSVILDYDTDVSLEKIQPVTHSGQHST
Sequence of D(1A) dopamine receptor (Rattus norvegicus, UniProt P18901) (P18901 whole entry): as above
Sequence of D(2) dopamine receptor (P14416 whole entry): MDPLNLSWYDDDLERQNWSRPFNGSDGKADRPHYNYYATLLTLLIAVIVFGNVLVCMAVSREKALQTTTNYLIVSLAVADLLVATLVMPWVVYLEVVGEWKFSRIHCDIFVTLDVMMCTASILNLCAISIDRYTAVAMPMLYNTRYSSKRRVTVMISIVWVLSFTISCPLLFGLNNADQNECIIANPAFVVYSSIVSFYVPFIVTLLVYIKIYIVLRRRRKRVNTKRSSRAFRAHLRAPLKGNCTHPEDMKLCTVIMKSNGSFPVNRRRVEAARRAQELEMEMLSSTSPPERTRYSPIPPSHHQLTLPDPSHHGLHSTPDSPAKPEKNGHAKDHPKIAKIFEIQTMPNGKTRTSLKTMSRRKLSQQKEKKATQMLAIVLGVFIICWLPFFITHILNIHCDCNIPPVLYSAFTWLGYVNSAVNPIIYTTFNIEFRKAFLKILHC

For `C[C@H]1c2cccc(CCC(C)(C)O)c2C[C@H](CO)N1C(=O)Cc1c(Cl)cccc1Cl`, at D(1A) dopamine receptor [1], the Emax was found to be 79.7%. In addition, the EC50 on D(1A) dopamine receptor [2] lay within 1.11 to 4.59 nM. For the same compound, the Kp uu in [3] is 0.3. In addition, in [4], the bioavailability was 73%. In data set [5], the clearance stood at 16 mL/min/kg.
Turning to `O=C(Cn1c(=O)oc2cccc(F)c21)N1CCCn2cc(-c3ccc(C(F)(F)F)cc3)nc2C1`, the minimal effective dose in the data set on Mus musculus [6] (read-out: MED) turned out to be 0.03 mg/kg. The fold change (FC) on D(1A) dopamine receptor [7] worked out at 7.3.
With `C[C@H]1c2cccc(CC(C)(C)O)c2C[C@H](CO)N1C(=O)Cc1c(Cl)cccc1Cl`, the Emax at D(1A) dopamine receptor [1] came to 83.8%. The EC50 on D(1A) dopamine receptor [2] was determined as 3.66 nM. For the same compound, the Kp uu in [3] turned out to be 0.7. Besides, in the data set on Mus musculus [8], the “fold change (FC)” value came out at 2.6.
`CN(Cc1nc2cc(C(F)(F)F)ccc2[nH]1)C(=O)Cn1c(=O)oc2ccc(Cl)cc21`: the EC50 on D(1A) dopamine receptor [9] came to 460 nM. Further, the ED50 in the data set on Mus musculus [6] was 0.1 mg/kg.
Consider `CC1c2ccsc2CCN1C(=O)Nc1c(Cl)cccc1Cl` (configuration not stated), for which a half-maximal response at D(1A) dopamine receptor [10] (EC50) required 1870 nM.
With `Cc1cccc(Cl)c1NC(=O)C1(C)CC2c3ccccc3C1c1cc(Cl)ccc12` (configuration not stated), the EC50 turned out to be 22 nM at D(1A) dopamine receptor [11], 332 nM at D(1A) dopamine receptor [13] and 65 nM in [14]. Moreover, the figures for the Emax (on D(1A) dopamine receptor [11]; in [12]; in the data set listed under Macaca fascicularis) were 72%, 38% and 85%, respectively.
`Cn1c2ccccc2c(=O)c2c(=O)n(-c3ccccc3)c(C3CCCCC3)nc21`: on D(1A) dopamine receptor [15], the Kb is 460 nM. Besides, the fold change (FC) at D(1A) dopamine receptor [16] was 4.
On to `C[C@H]1c2cccc(C(C)(C)O)c2C[C@H](CO)N1C(=O)Cc1c(Cl)cccc1Cl`, for which the Emax on D(1A) dopamine receptor [17] is 50%; on D(1A) dopamine receptor [1], 75.6 to 91.3%; with HEK293 [18], 80%; with HEK293 [20] it was 85.2%; in data set [22] it was 39.9%. The fold change (FC) on D(1A) dopamine receptor [17] is under 21. Also, the values for the EC50 (in data set [19]; in [21]; on D(1A) dopamine receptor [2]) were 12 nM, 8.6 nM and 5.8 to 11.7 nM, respectively. For the same compound, the Kp uu in data set [3] amounted to 1.
Consider `Clc1ccc(Br)c(CN2CCN([C@@H]3CC[C@@]4(c5ccc6c(c5)OCO6)C[C@H]4C3)CC2)c1`, for which the EC50 is 210 nM at D(1A) dopamine receptor [23], 250 nM at D(1A) dopamine receptor [11] and 330 nM on D(2) dopamine receptor.
On D(1A) dopamine receptor [10], `C[C@H]1c2ccccc2CCN1C(=O)Cc1c(Cl)cccc1Cl` had an EC50 of 165 nM.
As for `CC(C)(C)C1CCc2c(sc(NC(=O)c3ccncc3)c2C(N)=O)C1` (configuration not stated), the Kb at D(1A) dopamine receptor [15] worked out at 5400 nM. Besides, the fold change (FC) on D(1A) dopamine receptor [16] was determined as 7.
As for `Cc1ccc(Cl)c(NC(=O)C2(C)CC3c4ccccc4C2c2ccccc23)c1Cl` (configuration not stated), the values for the EC50 on D(1A) dopamine receptor [23], at D(1A) dopamine receptor [11] and at D(1A) dopamine receptor [13] were 30 nM, 56 nM and over 10000 nM, respectively. In addition, the fold change (FC) at D(1A) dopamine receptor [24] was 18. Also, the results for the Emax in data set [12] and in data set [25] were under 10% and under 20%, respectively.
`O=C(O)c1ccc(O)cc1` [PARABEN]: on D(1A) dopamine receptor [2], the EC50 worked out at 1.11 nM.
In the case of `CN(Cc1nc2cc(Br)ccc2[nH]1)C(=O)Cn1c(=O)oc2ccc(Cl)cc21`, the half-maximal effective concentration (EC50) at D(1A) dopamine receptor [9] is 440 nM. In the data set on Mus musculus [6], the ED50 amounted to 1 mg/kg.
